Results taken from patent US9486506B2 (Novo Nordisk A/S, priority 2011, dated 2016).
Numbered stars: 1 amine (or outer) side, 2 acyl side, 3 side chain; on linkers, the order of the positions; unused ones are H or OH. Side chains are listed from the residue outwards. Peptide text beside a SMILES is read from it. * marks the point of attachment. C18 diacid = O=C(O)CCCCCCCCCCCCCCCCC(=O)*; γGlu = O=C(O)[C@H](CCC(=O)[*:2])N[*:1]; AEEA = NCCOCCOCC(=O)O

Molecular target: T1, glucagon receptor (Homo sapiens, UniProt P47871)
T1 construct: expressed in transfected cells
T1 sequence (P47871 26-477): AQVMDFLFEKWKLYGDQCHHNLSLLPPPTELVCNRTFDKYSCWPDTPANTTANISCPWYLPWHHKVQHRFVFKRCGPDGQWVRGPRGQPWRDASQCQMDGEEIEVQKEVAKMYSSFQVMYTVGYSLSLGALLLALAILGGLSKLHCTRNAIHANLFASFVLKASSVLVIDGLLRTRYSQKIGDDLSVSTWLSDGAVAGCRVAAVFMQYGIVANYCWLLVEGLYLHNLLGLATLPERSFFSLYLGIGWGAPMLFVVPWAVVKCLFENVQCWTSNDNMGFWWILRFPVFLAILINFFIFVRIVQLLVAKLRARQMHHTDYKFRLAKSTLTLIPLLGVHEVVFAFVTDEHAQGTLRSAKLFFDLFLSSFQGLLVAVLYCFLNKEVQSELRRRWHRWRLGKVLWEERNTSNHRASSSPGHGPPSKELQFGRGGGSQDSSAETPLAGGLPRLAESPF
Test: Assay (I) Glucagon activity (cAMP biosensor, FLIPR)
Type: cell-based
Method: The cells (14000 per well) were incubated (37° C., 5% CO2) overnight in 384-well plates. Next day the cells were loaded with a calcium responsive dye that only distributed into the cytoplasm. Probenecid, an inhibitor of the organic anion transporter, was added to prevent the dye from leaving the cell. A PDE inhibitor was added to prevent formatted cAMP from being degraded. The plates were placed into a […] and the glucagon analogues were added. End point data were collected after 6 minutes. An increase in intracellular cAMP was proportional to an increased in calcium concentrations in the cytoplasm. When calcium was bound the dry a fluorescence signal was generated. EC50-values were calculated in Prism5.

CC(C)C[C@H](NC(=O)[C@H](Cc1ccc(O)cc1)NC(=O)[C@H](CCCCN)NC(=O)[C@H](CO)NC(=O)[C@H](Cc1ccc(O)cc1)NC(=O)[C@H](CC(=O)O)NC(=O)[C@H](CO)NC(=O)[C@@H](NC(=O)[C@H](Cc1ccccc1)NC(=O)[C@@H](NC(=O)CNC(=O)[C@H](Cc1c[nH]cn1)NC(=O)[C@H](CO)NC(=O)[C@@H](N)Cc1c[nH]cn1)[C@@H](C)O)[C@@H](C)O)C(=O)N[C@@H](CC(=O)O)C(=O)N[C@@H](CO)C(=O)N[C@@H](CCCNC(=N)N)C(=O)N[C@@H](CCCNC(=N)N)C(=O)N[C@@H](C)C(=O)N[C@@H](CCC(N)=O)C(=O)N[C@@H](CC(=O)O)C(=O)N[C@@H](Cc1ccccc1)C(=O)N[C@H](C(=O)N[C@@H](CCCCNC(=O)CC[C@H](NC(=O)CC[C@H](NC(=O)COCCOCCNC(=O)COCCOCCNC(=O)CC[C@H](NC(=O)CCCCCCCCCCCCCCCCC(=O)O)C(=O)O)C(=O)O)C(=O)O)C(=O)N[C@@H](Cc1c[nH]c2ccccc12)C(=O)N[C@@H](CC(C)C)C(=O)N[C@@H](CC(C)C)C(=O)N[C@@H](CO)C(=O)N[C@H](C(=O)O)[C@@H](C)O)C(C)C [Example 2, N^ε24-[(4S)-4-carboxy-4-[[(4S)-4-carboxy-4-[[2-[2-[2-[[2-[2-[2-[[(4S)-4-carboxy-4-(17-carboxyheptadecanoylamino)butanoyl]amino]ethoxy]ethoxy]acetyl]amino]ethoxy]ethoxy]acetyl]amino]butanoyl]amino]butanoyl]-[His^3,Lys^24,Leu^27,Ser^28]-Glucagon]
EC50: 0.129 nM

CC(C)C[C@H](NC(=O)[C@H](Cc1ccc(O)cc1)NC(=O)[C@H](CCCCN)NC(=O)[C@H](CO)NC(=O)[C@H](Cc1ccc(O)cc1)NC(=O)[C@H](CC(=O)O)NC(=O)[C@H](CO)NC(=O)[C@@H](NC(=O)[C@H](Cc1ccccc1)NC(=O)[C@@H](NC(=O)CNC(=O)[C@H](Cc1c[nH]cn1)NC(=O)[C@H](CO)NC(=O)[C@@H](N)Cc1c[nH]cn1)[C@@H](C)O)[C@@H](C)O)C(=O)N[C@@H](CC(=O)O)C(=O)N[C@@H](CO)C(=O)N[C@@H](CCCNC(=N)N)C(=O)N[C@@H](CCCNC(=N)N)C(=O)N[C@@H](C)C(=O)N[C@@H](CCCCN)C(=O)N[C@@H](CC(=O)O)C(=O)N[C@@H](Cc1ccccc1)C(=O)N[C@H](C(=O)N[C@@H](CCCCNC(=O)CC[C@H](NC(=O)CC[C@H](NC(=O)COCCOCCNC(=O)COCCOCCNC(=O)CC[C@H](NC(=O)CCCCCCCCCCCCCCCCC(=O)O)C(=O)O)C(=O)O)C(=O)O)C(=O)N[C@@H](Cc1c[nH]c2ccccc12)C(=O)N[C@@H](CC(C)C)C(=O)N[C@@H](CC(C)C)C(=O)N[C@@H](CO)C(=O)N[C@H](C(=O)O)[C@@H](C)O)C(C)C [Example 3, N^ε24-[(4S)-4-carboxy-4-[[(4S)-4-carboxy-4-[[2-[2-[2-[[2-[2-[2-[[(4S)-4-carboxy-4-(17-carboxyheptadecanoylamino)butanoyl]amino]ethoxy]ethoxy]acetyl]amino]ethoxy]ethoxy]acetyl]amino]butanoyl]amino]butanoyl]-[His^3,Lys^20,Lys^24,Leu^27,Ser^28]-Glucagon] (H-HSHGTFTSDYSKYLDSRRAKDFVK([γGlu-γGlu-AEEA-AEEA-γGlu-C18 diacid])WLLST-OH)
EC50: 0.249 nM

CC(C)C[C@H](NC(=O)[C@H](Cc1ccc(O)cc1)NC(=O)[C@H](CCCCN)NC(=O)[C@H](CO)NC(=O)[C@H](Cc1ccc(O)cc1)NC(=O)[C@H](CC(=O)O)NC(=O)[C@H](CO)NC(=O)[C@@H](NC(=O)[C@H](Cc1ccccc1)NC(=O)[C@@H](NC(=O)CNC(=O)[C@H](Cc1c[nH]cn1)NC(=O)[C@H](CO)NC(=O)[C@@H](N)Cc1c[nH]cn1)[C@@H](C)O)[C@@H](C)O)C(=O)N[C@@H](CC(=O)O)C(=O)N[C@@H](CO)C(=O)N[C@@H](CCCNC(=N)N)C(=O)N[C@@H](CCCNC(=N)N)C(=O)N[C@@H](C)C(=O)N[C@@H](CCC(N)=O)C(=O)N[C@@H](CC(=O)O)C(=O)N[C@@H](Cc1ccccc1)C(=O)N[C@H](C(=O)N[C@@H](CCCCNC(=O)CC[C@H](NC(=O)CC[C@H](NC(=O)COCCOCCNC(=O)COCCOCCNC(=O)CC[C@H](NC(=O)CCCCCCCCCCCCCCCCC(=O)O)C(=O)O)C(=O)O)C(=O)O)C(=O)N[C@@H](Cc1c[nH]c2ccccc12)C(=O)N[C@@H](CC(C)C)C(=O)N[C@@H](CC(C)C)C(=O)N[C@@H](CC(N)=O)C(=O)N[C@H](C(=O)O)[C@@H](C)O)C(C)C [Example 5, N^ε24-[(4S)-4-carboxy-4-[[(4S)-4-carboxy-4-[[2-[2-[2-[[2-[2-[2-[[(4S)-4-carboxy-4-(17-carboxyheptadecanoylamino)butanoyl]amino]ethoxy]ethoxy]acetyl]amino]ethoxy]ethoxy]acetyl]amino]butanoyl]amino]butanoyl]-[His^3,Lys^24,Leu^27]-Glucagon]
EC50: 0.105 nM

CC(C)C[C@H](NC(=O)[C@H](Cc1ccc(O)cc1)NC(=O)[C@H](CCCCN)NC(=O)[C@H](CO)NC(=O)[C@H](Cc1ccc(O)cc1)NC(=O)[C@H](CC(=O)O)NC(=O)[C@H](CO)NC(=O)[C@@H](NC(=O)[C@H](Cc1ccccc1)NC(=O)[C@@H](NC(=O)CNC(=O)[C@H](Cc1c[nH]cn1)NC(=O)[C@H](CO)NC(=O)[C@@H](N)Cc1c[nH]cn1)[C@@H](C)O)[C@@H](C)O)C(=O)N[C@@H](CC(=O)O)C(=O)N[C@@H](CO)C(=O)N[C@@H](CCCCN)C(=O)N[C@@H](CCCNC(=N)N)C(=O)N[C@@H](C)C(=O)N[C@@H](CCC(N)=O)C(=O)N[C@@H](CCC(=O)O)C(=O)N[C@@H](Cc1ccccc1)C(=O)N[C@H](C(=O)N[C@@H](CCCCNC(=O)CC[C@H](NC(=O)CC[C@H](NC(=O)COCCOCCNC(=O)CC[C@H](NC(=O)CCCCCCCCCCCCCCCCC(=O)O)C(=O)O)C(=O)O)C(=O)O)C(=O)N[C@@H](Cc1c[nH]c2ccccc12)C(=O)N[C@@H](CC(C)C)C(=O)N[C@@H](CC(C)C)C(=O)N[C@@H](CO)C(=O)N[C@H](C(=O)O)[C@@H](C)O)C(C)C [Example 6, N^ε24-[(4S)-4-carboxy-4-[[(4S)-4-carboxy-4-[[2-[2-[2-[[(4S)-4-carboxy-4-(17-carboxyheptadecanoylamino)butanoyl]amino]ethoxy]ethoxy]acetyl]amino]butanoyl]amino]butanoyl]-[His^3,Lys^17,Glu^21,Lys^24,Leu^27,Ser^28]-Glucagon] (H-HSHGTFTSDYSKYLDSKRAQEFVK([γGlu-γGlu-AEEA-γGlu-C18 diacid])WLLST-OH)
EC50: 0.077 nM

CC(C)C[C@H](NC(=O)[C@H](Cc1c[nH]c2ccccc12)NC(=O)[C@H](CCCCNC(=O)CC[C@H](NC(=O)CC[C@H](NC(=O)COCCOCCNC(=O)COCCOCCNC(=O)CC[C@H](NC(=O)CCCCCCCCCCCCCCCCC(=O)O)C(=O)O)C(=O)O)C(=O)O)NC(=O)[C@@H](NC(=O)[C@H](Cc1ccccc1)NC(=O)[C@H](CC(=O)O)NC(=O)[C@H](CCC(N)=O)NC(=O)[C@H](C)NC(=O)[C@H](CCCNC(=N)N)NC(=O)[C@H](CCCNC(=N)N)NC(=O)[C@@H](NC(=O)[C@H](CC(=O)O)NC(=O)[C@H](CC(C)C)NC(=O)[C@H](Cc1ccc(O)cc1)NC(=O)[C@H](CCCCN)NC(=O)[C@H](CO)NC(=O)[C@H](Cc1ccc(O)cc1)NC(=O)[C@H](CC(=O)O)NC(=O)[C@H](CO)NC(=O)[C@@H](NC(=O)[C@H](Cc1ccccc1)NC(=O)[C@@H](NC(=O)CNC(=O)[C@H](CCC(N)=O)NC(=O)[C@H](CO)NC(=O)[C@@H](N)Cc1c[nH]cn1)[C@@H](C)O)[C@@H](C)O)C(C)C)C(C)C)C(=O)N[C@@H](CC(C)C)C(=O)N[C@@H](CC(N)=O)C(=O)N[C@H](C(=O)O)[C@@H](C)O [Example 7, N^ε24-[(4S)-4-carboxy-4-[[(4S)-4-carboxy-4-[[2-[2-[2-[[2-[2-[2-[[(4S)-4-carboxy-4-(17-carboxyheptadecanoylamino)butanoyl]amino]ethoxy]ethoxy]acetyl]amino]ethoxy]ethoxy]acetyl]amino]butanoyl]amino]butanoyl]-[Val^16,Lys^24,Leu^27]-Glucagon]
EC50: 0.081 nM

CC[C@H](C)[C@H](NC(=O)[C@H](CC(=O)O)NC(=O)[C@H](CC(C)C)NC(=O)[C@H](Cc1ccc(O)cc1)NC(=O)[C@H](CCCCN)NC(=O)[C@H](CO)NC(=O)[C@H](Cc1ccc(O)cc1)NC(=O)[C@H](CC(=O)O)NC(=O)[C@H](CO)NC(=O)[C@@H](NC(=O)[C@H](Cc1ccccc1)NC(=O)[C@@H](NC(=O)CNC(=O)[C@H](CCC(N)=O)NC(=O)[C@H](CO)NC(=O)[C@@H](N)Cc1c[nH]cn1)[C@@H](C)O)[C@@H](C)O)C(=O)N[C@@H](CCCNC(=N)N)C(=O)N[C@@H](CCCNC(=N)N)C(=O)N[C@@H](C)C(=O)N[C@@H](CCC(N)=O)C(=O)N[C@@H](CC(=O)O)C(=O)N[C@@H](Cc1ccccc1)C(=O)N[C@H](C(=O)N[C@@H](CCCCNC(=O)CC[C@H](NC(=O)CC[C@H](NC(=O)COCCOCCNC(=O)COCCOCCNC(=O)CC[C@H](NC(=O)CCCCCCCCCCCCCCCCC(=O)O)C(=O)O)C(=O)O)C(=O)O)C(=O)N[C@@H](Cc1c[nH]c2ccccc12)C(=O)N[C@@H](CC(C)C)C(=O)N[C@@H](CC(C)C)C(=O)N[C@@H](CC(N)=O)C(=O)N[C@H](C(=O)O)[C@@H](C)O)C(C)C [Example 8, N^ε24-[(4S)-4-carboxy-4-[[(4S)-4-carboxy-4-[[2-[2-[2-[[2-[2-[2-[[(4S)-4-carboxy-4-(17-carboxyheptadecanoylamino)butanoyl]amino]ethoxy]ethoxy]acetyl]amino]ethoxy]ethoxy]acetyl]amino]butanoyl]amino]butanoyl]-[Ile^16,Lys^24,Leu^27]-Glucagon]
EC50: 0.081 nM
